Assay results reported in ChEMBL document CHEMBL6134865, “Rational Design of Methylene Blue-Raloxifene Conjugates for Efficient Breast Tumor Elimination Triggered by ERα Degradation” (J Med Chem, 2025).
Calls of active or inactive are those of the source. No cut-off for these calls is given here.

Experiments:
[1] = Toxicity in female BALB/c mouse xenografted with human MCF7 cells assessed as change in ALT level at 5 mg/kg, iv measured after 14 days; assay type: organism-based; conditions: in vivo, 336 h, time 14 day
[2] = Toxicity in female BALB/c mouse xenografted with human MCF7 cells assessed as change in creatinine level at 5 mg/kg, iv measured after 14 days; assay type: organism-based; conditions: in vivo, 336 h, time 14 day
[3] = Toxicity in female BALB/c mouse xenografted with human MCF7 cells assessed as change in blood urea nitrogen level at 5 mg/kg, iv measured after 14 days; assay type: organism-based; conditions: in vivo, 336 h, time 14 day
[4] = system: MCF7; assay: Antitumor activity against human MCF7 cells xenografted in female BALB/c mouse model assessed as tumor growth inhibition at 5 mg/kg, iv measured after 14 days relative to control; assay type: functional; conditions: MCF7, 336 h, time 14 day, read-out: TGI
[5] = Toxicity in female BALB/c mouse xenografted with human MCF7 cells assessed as change in body weight at 5 mg/kg, iv measured after 14 days; assay type: organism-based; conditions: in vivo, 336 h, time 14 day
[6] = Toxicity in female BALB/c mouse xenografted with human MCF7 cells assessed as change in AST level at 5 mg/kg, iv measured after 14 days; assay type: organism-based; conditions: in vivo, 336 h, time 14 day
[7] = Photothermal effect of compound in water assessed as increase in solution temperature at 0.5 to 10 uM in presence of 660 nm 0.4 W/cm2 light irradiation; assay type: functional; conditions: dose 0.5-10 µM, time <= 5.0 min
[8] = system: MCF7; assay: cells; conditions: Homo sapiens, MCF7, light or radiation study
Description: Antiproliferative activity against human MCF7 cells assessed as inhibition of cell proliferation incubated for 48 hrs with 660 nm 0.4 W/cm2 light irradiation for 1 min at 6th hr of incubation time by MTT assay

[9] = system: MCF7; assay: cells; conditions: Homo sapiens, MCF7, light or radiation study; remark: listed apart in the source
Description: Antiproliferative activity against human MCF7 cells assessed as inhibition of cell proliferation incubated for 48 hrs with 660 nm 0.4 W/cm2 light irradiation for 2 min at 6th hr of incubation time by MTT assay

[10] = system: MCF7; assay: cells; conditions: Homo sapiens, MCF7, 48 h
Description: Antiproliferative activity against human MCF7 cells assessed as inhibition of cell proliferation incubated for 48 hrs by MTT assay

[11] = Photothermal effect of compound in water assessed as increase in solution temperature measured up to 5 mins in presence of 660 nm 0.4 W/cm2 light irradiation; assay type: functional; conditions: dose 0.5-10 µM
[12] = system: MCF7; assay: cells; conditions: Homo sapiens, MCF7, light or radiation study; remark: listed apart in the source
Description: Antiproliferative activity against human MCF7 cells assessed as inhibition of cell proliferation incubated for 48 hrs with 660 nm 0.4 W/cm2 light irradiation for 5 min at 6th hr of incubation time by MTT assay

[13] = system: MCF7; assay: Induction of ROS generation in human MCF7 cells assessed as cell percentage with elevated ROS at 1 uM incubated for 6 hrs followed by irradiation with 660 nm 0.4 W/cm2 light for 2 min by DCFH-DA probe based flow cytometric analysis (reference value: 0.2 %); assay type: functional; conditions: time 362 min, 6.033 h
[14] = Induction of ROS generation in water at 1 uM irradiated with 660 nm 0.4 W/cm2 light up to 180 sec by DCFH probe based fluorescence spectra analysis; assay type: functional
[15] = system: MCF7; assay: cells; conditions: Homo sapiens, MCF7, light or radiation study; remark: listed apart in the source
Description: Antiproliferative activity against human MCF7 cells assessed as inhibition of cell proliferation incubated for 48 hrs with 660 nm 0.4 W/cm2 light irradiation for 4 min at 6th hr of incubation time by MTT assay

[16] = system: MCF7; assay: cells; conditions: Homo sapiens, MCF7, light or radiation study; remark: listed apart in the source
Description: Antiproliferative activity against human MCF7 cells assessed as inhibition of cell proliferation incubated for 48 hrs with 660 nm 0.4 W/cm2 light irradiation for 3 min at 6th hr of incubation time by MTT assay

[17] = Induction of ROS generation in water assessed as decrease in ABDA absorption peak at 5 uM irradiated with 660 nm 0.4 W/cm2 light up to 5 mins by ABDA probe based UV-vis absorption spectra analysis; assay type: functional
[18] = in vivo; conditions: Sprague-Dawley, rat, iv, 5 mg/kg
Description: Cmax in Sprague-Dawley rat at 5 mg/kg, iv measured after 0.5 to 168 hrs by LC-MS analysis

[19] = in vivo; conditions: Sprague-Dawley, rat, iv, 5 mg/kg; remark: listed apart in the source
Description: Volume of distribution at steady state in Sprague-Dawley rat at 5 mg/kg, iv measured after 0.5 to 168 hrs by LC-MS analysis

[20] = in vivo; conditions: Sprague-Dawley, rat, iv, 5 mg/kg; remark: listed apart in the source
Description: AUC (0 to infinity) in Sprague-Dawley rat at 5 mg/kg, iv measured after 0.5 to 168 hrs by LC-MS analysis

[21] = in vivo; conditions: Sprague-Dawley, rat, po, 15 mg/kg
Description: Tmax in Sprague-Dawley rat at 15 mg/kg, po administered via gavage and measured after 0.5 to 168 hrs by LC-MS analysis

[22] = in vivo; conditions: Sprague-Dawley, rat, po, 15 mg/kg; remark: listed apart in the source
Description: Cmax in Sprague-Dawley rat at 15 mg/kg, po administered via gavage and measured after 0.5 to 168 hrs by LC-MS analysis

[23] = in vivo; conditions: Sprague-Dawley, rat, po, 15 mg/kg; remark: listed apart in the source
Description: AUC (0 to infinity) in Sprague-Dawley rat at 15 mg/kg, po administered via gavage and measured after 0.5 to 168 hrs by LC-MS analysis

Row | IC50 [8] | IC50 [9] | IC50 [10] | IC50 [12] | IC50 [15] | IC50 [16] | Compound | Activity [13] | Activity [14] | Activity [17] | also measured
1 |  |  |  |  |  |  | C[C@]12CC[C@@H]3c4ccc(O)cc4C[C@@H](CCCCCCCCC[S+]([O-])CCCC(F)(F)C(F)(F)F)[C@H]3[C@@H]1CC[C@@H]2O (some centres undefined) [FULVESTRANT] |  |  |  | Activity [1]: Non-toxic; Activity [2]: Non-toxic; Activity [3]: Non-toxic; inhibition in vivo at 5 mg/kg [4]: 95.4%; Activity [5]: Non-toxic; Activity [6]: Non-toxic
2 | 5.53 µM | 3.85 µM | > 100 µM | 0.63 µM | 1.34 µM | 1.78 µM | CCN(CC)c1ccc2nc3c4ccccc4/c(=N\CCC(=O)NCCCOc4ccc(C(=O)c5c(-c6ccc(O)cc6)sc6cc(O)ccc56)cc4)cc-3sc2c1 | 4.2% | Active | Active | Activity [7]: Time-dependent-effect; Activity [11]: Dose-dependent-effect
3 | > 100 µM | > 100 µM | > 100 µM | 5.53 µM | 6.76 µM | 14.1 µM | CN(C)c1ccc2nc3ccc(N(C)C)cc3[s+]c2c1 [METHYLENE BLUE ANHYDROUS] |  |  |  | 
4 | 4.67 µM | 0.93 µM | > 100 µM | 0.33 µM | 0.38 µM | 0.72 µM | CCN(CC)c1ccc2nc3c4ccccc4/c(=N\CCCCC(=O)NCCCOc4ccc(C(=O)c5c(-c6ccc(O)cc6)sc6cc(O)ccc56)cc4)cc-3sc2c1 | 4.8% | Active | Active | 
5 |  |  | 6.7 µM |  |  |  | O=C(c1ccc(OCCN2CCCCC2)cc1)c1c(-c2ccc(O)cc2)sc2cc(O)ccc12 [RALOXIFENE] |  |  |  | 
6 |  |  |  |  |  |  | CC/C(=C(\c1ccccc1)c1ccc(OCCN(C)C)cc1)c1ccccc1 [TAMOXIFEN] |  |  |  | Cmax [18]: 15.9 ng/mL; Vd [19]: 221 L/kg; AUC(0-inf) [20]: 295 ng·h/mL; Tmax [21]: 16 h; Cmax [22]: 11.7 ng/mL; AUC(0-inf) [23]: 311 ng·h/mL
